Laboratory results published in publication PMC3247980 (The Journal of Biological Chemistry, 2011).

Columns and labels:
PfFT1 = molecular target: T1, PfFT1 (Plasmodium falciparum, UniProt Q8IBB7); test: [3H]folinic acid uptake, Xenopus oocytes; type: cell-based; details: labelled compound, 40 min, pH 7.4, room temperature
T1 sequence (Q8IBB7 1-505): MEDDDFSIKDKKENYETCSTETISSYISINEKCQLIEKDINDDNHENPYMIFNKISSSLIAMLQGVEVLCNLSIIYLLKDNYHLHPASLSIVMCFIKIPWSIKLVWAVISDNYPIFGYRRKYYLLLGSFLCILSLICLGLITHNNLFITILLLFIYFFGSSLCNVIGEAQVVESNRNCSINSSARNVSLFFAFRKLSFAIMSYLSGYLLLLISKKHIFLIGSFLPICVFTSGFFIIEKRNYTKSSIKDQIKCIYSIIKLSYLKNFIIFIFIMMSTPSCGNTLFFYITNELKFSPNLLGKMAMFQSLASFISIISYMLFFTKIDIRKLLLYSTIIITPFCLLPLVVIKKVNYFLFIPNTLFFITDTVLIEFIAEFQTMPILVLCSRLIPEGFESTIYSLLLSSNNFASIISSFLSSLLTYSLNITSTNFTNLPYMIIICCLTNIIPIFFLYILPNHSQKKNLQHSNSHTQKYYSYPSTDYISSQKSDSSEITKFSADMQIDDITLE

PfFT2 = molecular target: T2, PfFT2 (Plasmodium falciparum, UniProt Q8IIK1); test: [3H]folinic acid uptake, Xenopus oocytes; type: cell-based; details: labelled compound, 40 min, pH 7.4, room temperature
T2 sequence (Q8IIK1 1-455): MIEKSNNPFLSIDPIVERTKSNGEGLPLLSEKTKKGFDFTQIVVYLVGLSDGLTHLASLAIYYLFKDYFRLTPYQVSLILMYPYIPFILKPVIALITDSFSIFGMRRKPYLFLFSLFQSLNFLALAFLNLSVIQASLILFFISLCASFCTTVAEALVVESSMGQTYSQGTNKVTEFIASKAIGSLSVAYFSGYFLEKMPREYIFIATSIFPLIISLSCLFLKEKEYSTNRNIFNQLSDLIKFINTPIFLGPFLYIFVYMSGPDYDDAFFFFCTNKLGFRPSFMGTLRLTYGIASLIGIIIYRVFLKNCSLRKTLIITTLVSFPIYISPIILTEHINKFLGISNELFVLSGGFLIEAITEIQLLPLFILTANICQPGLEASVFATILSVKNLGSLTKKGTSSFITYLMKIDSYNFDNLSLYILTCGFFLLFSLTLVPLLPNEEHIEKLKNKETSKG

Question: For `Nc1nc(=O)c2c([nH]1)NCC(CNc1ccc(C(=O)N[C@@H](CCC(=O)O)C(=O)O)cc1)N2C=O` (mixture of isomers) [folinic acid], which “[3H]folinic acid uptake, Xenopus oocytes” value (PfFT1) is on record?
Answer: cRNA from PfFT1 and PfFT2 showed significantly higher uptake of [^3H]folinic acid

Question: And the “[3H]folinic acid uptake, Xenopus oocytes” value (PfFT2)?
Answer: cRNA from PfFT1 and PfFT2 showed significantly higher uptake of [^3H]folinic acid
